Structures are written as SMILES.

These results are taken from patent EP2392568A1, “Heterocyclic amino acids for prostate cancer imaging” (priority 2010, dated 2011).

For data set [1], the system named is DU145 prostate cancer cells. Put plainly: Cell-uptake experiment: uptake of [14C] ACPC in the presence of excess heterocyclic amino acid. The class given is cell-based. Conditions: 5 µM 14C-ACPC, 60 minutes at 37°C, uptake buffer PBS with 0.1% BSA, Figure 10. The method, then:
To assess the difference between heterocyclic amino acids and other non-natural amino acids, we studied the uptake of the cyclic amino acid [14C] ACPC into DU145 prostate cancer cells in the presence of excess amount of an heterocyclic amino acid (compound 15). 25000 DU145 cells were seeded per cavity of a 48 well incubation plate (Becton Dickinson; Cat. 353078) and incubated for 2 days in D-MEM / F-12 (1:1) with GlutaMAx (Invitrogen; Cat. 31331) medium supplemented with 10% FCS in an incubator (37°C, 5%CO2).

The next data set concerns DU145 xenografts. Put plainly: PET/CT-imaging in DU145-tumor bearing mice. The class given is in vivo. Conditions: microPET/CT; for renal clearance / background activity: 50-70min after injection; for tumor-contrast: 50-70min after injection of - 10 MBq radiotracer; for background activity: except for kidney and bladder uptake. The method, then:
Example 9 was imaged on a microPET/ CT (Inveon, Siemens) in DU145 tumor-bearing mice 50-70min after injection of - 10 MBq radiotracer 45.
Example 10 was imaged on a microPET/ CT (Inveon, Siemens) in DU145 tumor-bearing mice 50-70min after injection of - 10 MBq radiotracer 46.

In data set [2] the test system is primary prostate cancer tumors. Conditions: prostate cancer patients, cited from earlier work; for uptake into primary prostate cancer tumors: Schuster et al., abstract at SNM 2010.
The conditions of data set [3]: McConathy and Goodman, Cancer Metastasis Rev. 2008; cited from earlier work.

On to `N[C@]1(C(=O)O)COC[C@H]1F` (racemic) [compound 15, (3SR,4SR)-3-Amino-4-fluorotetrahydrofuran-3-carboxylic acid], for which the “[14C] ACPC uptake into DU145 prostate cancer cells in the presence of excess amount of heterocyclic amino acid” value in data set [1] was “able to block [14C] ACPC uptake”.

For `NC1(C(=O)O)COCC1[18F]` (racemic) [tracer 45, (3SR,4SR)-3-Amino-4-[^18F]fluorotetrahydrofuran-3-carboxylic acid], in the data set with DU145 xenografts, the renal clearance entry is “rapid renal clearance”, the tumor-contrast result is on record as “High tumor-contrast” and the background activity result is listed as “very low background activity”.

In the case of `N[C@@]1(C(=O)O)CCOC[C@@H]1[18F]` (racemic) [tracer 46, (3RS,4RS)-4-Amino-3-[^18F]fluoro-3,4,5,6-tetrahydro-2H-pyran-4-carboxylic acid], in the data set on DU145 xenografts, the renal clearance result is “rapid renal clearance”, the tumor-contrast result is on record as “High tumor-contrast” and the background activity result is “very low background activity”.

Regarding `NC1(C(=O)O)CCCC1[18F]` (centres unmarked) [2-FACPC], in data set [2], the “uptake into primary prostate cancer tumors” value is “showed uptake into primary prostate cancer tumors”, the “background in other organs” value is recorded as “high background signals for instance in the blood pool” and the “renal elimination / excretion into the bladder” value is given as “excreted into the bladder more rapidly”.

Turning to `N[C@]1(C(=O)O)C[C@@H](F)C1` [3-FACBC, anti-1-amino-3-[18F]fluorocyclobutyl-1-carboxylic acid], in data set [2], the “uptake into primary prostate cancer tumors” value is recorded as “showed uptake into primary prostate cancer tumors”; the “background in other organs” value is “high background in other organs such as liver and heart”; the “renal elimination / excretion into the bladder” value is reported as “delayed renal elimination”.

As to `NC1([11C](=O)O)CCC1` [[11C]ACBC, 1-aminocyclobutane-1-[11C]carboxylic acid], the metabolism result in data set [3] is listed as “not metabolized”.
